Read-outs that look alike come from different tables or passages of the source. Square brackets hold non-standard residues; d marks the D form. Peptide text beside a SMILES is read from it. * marks the point of attachment. X1 = COC1=CC(=O)N(C(=O)[C@@H](O*)C(C)C)[C@H]1Cc1ccccc1; NMe2Val = CC(C)[C@@H](C(=O)*)N(C)C; NMeV = CN[C@H](C(=O)O)C(C)C
Legend:
[1] = tested on: KB-3-1; assay: Cell survival assay (SRB), KB-3-1; format: cell-based, human
Procedure, shortened: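 Step 1: add serial compound dilutions to cells in duplicate. Step 2: incubate 3 days. Step 3: fix in 10% TCA for 1 hr at 4 °C, stain with 0.04% SRB for 10 min, wash in 1% acetic acid, solubilise in 10 mM Trizma Base, measure absorbance and derive the 50%-growth-inhibition concentration.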

[2] = tested on: KB-HTI-4.0; assay: Cell survival assay, KB-3-1 line made resistant to Example 129 (KB-HTI-4.0); format: cell-based, human
From the text: Cells lines with previously known mechanisms of resistance. […] Res. 8: 207-218,1996); KB-3-1 (parental derived from an epidermoid carcinoma), KB-8.5, KB-V1 (Akiyama S-I, Fojo A, Hanover J A, Pastan I, Gottesman M M. Isolation and genetic characterization of human KB cell lines resistant to multiple drugs. Somatic Cell Mol. Gen., 11: 117-126,1985; Shen D-W, Cardarelli C, Hwang J, Cornwell M, Richert N, Ishii S, Pastan I, Gottesman MM. […] J. Biol. Chem., 261: 7762-7770, 1986); and HL-60 (parental derived from human leukemia) and HL60/AR (McGrath T., Center M. S. Adriamycin resistance in HL60 cells in the absence of detectable P-glycoprotein. Biochem. Res. Commun., 145:1171-1176,1987); A549 and A549.EpoB40 (He L., Yang C.-P.H., Horwitz S. B. Mutations in p-tubulin map to domains involved in regulation of microtubule stability in epothilone-resistant cell lines. Molecular Cancer Therapeutics. 1: 3-10, 2001). HCT-15 human colon carcinoma and DLD-1 human colon carcinoma are obtained from American Tissue Culture Collection. The MX-1W carcinoma is a Wyeth variant orginally obtained as MX-1 breast carcinoma from the National Cancer Institute. Cell lines selected for resistance to Representative Example 129. KB-3-1 cells are selected for resistance to Example 129 by chronically exposing cells to increasing concentrations of Example 129.
2.2. Cell Survival Assay: Standard Pharmacological Test Procedure. The concentration of candidate inhibitor required to inhibit 50% of cell growth (IC50) is done according to previously reported methods. […] Compounds are serially diluted into media as 2× stocks and 100 μl added to cells in duplicate. Compounds are incubated with cells for 3 days. At the end of the incubation period the sulforhodamine B (SRB) assay, which measures protein content as an assessment of cell survival, is performed as described previously (Skehan P, Storeng R, Scudiero D, Monks A, McMahon J, Vistica D, Warren J T, Bokesch H, Kenney S, Boyd MR. New calorimetric cytotoxicity assay for anticancer-drug screening. J Natl Cancer Inst 1990 Jul 4;82(13):1107-12) with some modification as follows. For KB-3-1 cells with 20% FCS, media is gently decanted and replaced with 200 μl of serum-free media mixed with cold 50% TCA for a final concentration of 10% TCA. The plates are incubated for 1 hr at 4° C., followed by washing 5 times in cold distilled water, then air dried overnight. The fixed cells are stained for 10 min with 80 μl of 0.04% SRB solution prepared in 1% glacial acetic acid. Stain is discarded and plates washed 5 times in 1% glacial acetic acid, then air-dried until completely dry. Stained cell product is dissolved in 150 μl of 10 mM Trizma Base and placed on a shaker for 20 minutes until fully dissolved. Absorbance is read on a Victor V multi-label plate reader (Perkin Elmer, Gaithersburg, Md.).
Cells are selected for resistance to Example 129 to understand the frequency and mechanistic basis of resistance.

[3] = tested on: KB-8-5 (MDR1+); assay: Cell survival assay (SRB), KB-8-5 (MDR1+); conditions: for IC50: Homo sapiens
[4] = tested on: KB-V1 (MDR1++); assay: Cell survival assay (SRB), KB-V1 (MDR1++); conditions: for IC50: Homo sapiens
[5] = tested on: Human Melanoma Carcinoma Lox; conditions: staged LOX xenograft; at MTD ('<': MTD not achieved); days 11-15
Protocol: 2.4. Growth of Tumors in Nude Mice. […] In these experiments, xenografts are implanted subcutaneously into the flanks of nude mice. […] Relative tumor mass compared to controls are assessed during the 21-day post-staging period.
Groups of 5 female nu/nu mice are injected with 1.5×10^6 KB-3-1 (A) or Lox cells (B). […] Relative tumor growth is determined during the experiment and % T/C calculated. Statistical analyses are Student's t-test of treated time points vs. vehicle (*, P<0.05; **, P<0.01)

[6] = KB-3-1 parental, Table 8, read-out: KB-3-1 IC50
[7] = KB-3-1 line made resistant to Example 129, Table 8, read-out: KB-HTI-4.0 IC50
[8] = Homo sapiens, KB-3-1 parental, Table 8, read-out: KB-3-1 IC50
[9] = Homo sapiens, KB-3-1 line made resistant to Example 129, Table 8, read-out: KB-HTI-4.0 IC50
[10] = MDR1, read-out: In vitro IC50 (nM) KB85
[11] = read-out: In vitro IC50 (nM) KBV1
[12] = Homo sapiens, KB 3-1, KB-3-1 cells (paclitaxel-sensitive parent), read-out: In vitro IC50 (nM) KB-3-1

Row | Compound | (RR) relative resistance vs. parental cells ([2]; KB-HTI-4.0 vs KB-3-1) | IC50 [1, 8] [nM] | IC50 [2, 9] [nM] | Ratio KB85/KB [3] | IC50 [3, 10] [nM] | Ratio KBV1/KB [4] | IC50 [4, 11] [nM] | IC50 [1, 12] [nM] | other results
1 | COC1=CC(=O)N(C(=O)[C@@H](OC(=O)[C@@H]2CCCN2C(=O)[C@@H]2CCCN2C(=O)[C@H](C(C)C)N(C)C(=O)[C@@H](NC(=O)[C@H](C(C)C)N(C)C)C(C)C)C(C)C)[C@H]1Cc1ccccc1 [Dolastatin −15] (NMe2Val-V[NMeV]PP-X1) | (12) |  |  |  |  |  |  |  | IC50 [1, 6]: 0.04 ± 0.05 nM; IC50 [2, 7]: 0.49 ± 0.14 nM
2 | dolastatin |  |  |  |  |  |  |  |  | resistance of KB-3-1-derived cell lines selected with Example 129 ([2]; vs KB-3-1): 28 fold
3 | C=C(C)[C@@H]1NC(=O)[C@@H](NC)[C@@H](O)c2cc(Cl)c(O)c(c2)O[C@](C)(CC)[C@@H](C(=O)N2CC=C[C@H]2C(=O)N/C(C(=O)N/C(=C/C(=O)O)C(=O)O)=C(\C)CC)NC1=O [Phomopsin A] | (5) |  |  |  |  |  |  |  | IC50 [1, 6]: 671 ± 55 nM; IC50 [2, 7]: 3530 ± 2990 nM
4 | CCC1=C[C@@H]2CN(C1)Cc1c([nH]c3ccccc13)[C@@](C(=O)OC)(c1cc3c(cc1OC)N(C)[C@H]1[C@@](O)(C(=O)OC)[C@H](OC(C)=O)[C@]4(CC)C=CCN5CC[C@]31[C@@H]54)C2 [vinorelbine, reference compound] | (7) | 1.22 ± 0.33 | 8.64 ± 2.94 |  |  |  |  |  | IC50 ([3]; MDR1, read-out: KB-8-5 (MDR1+) IC50, nM (N)): 132 nM; RR, relative resistance ([3]; IC50 KB-8-5 / IC50 KB-3-1, Table 3): 38; resistance of KB-8-5 cells ([3]; KB-8-5 (KB-85) vs KB-3-1, in vitro): 38 fold; IC50 ([4]; read-out: KB-V1 (MDR1++) IC50, nM (N)): > 3000 nM; RR, relative resistance ([4]; IC50 KB-V1 / IC50 KB-3-1, Table 3): >857; IC50 ([1]; Homo sapiens, KB-3-1 parental, Table 3, read-out: KB-3-1 IC50, nM (N)): 3.5 nM
5 | C(=N\NC1=NCCN1)/c1c2ccccc2c(/C=N/NC2=NCCN2)c2ccccc12 [Bisantrene] | (3) | 119 ± 47 | 299 ± 91 |  |  |  |  |  | 
6 | CC[C@@]1(O)C(=O)OCc2c1cc1n(c2=O)Cc2cc3ccccc3nc2-1 [Camptothecin, camptothecin] | (23) | 14.9 ± 6.11 | 335 ± 157 |  |  |  |  |  | 
7 | CO[C@@H](/C(C)=C/C=C/C(C)=C/c1coc(C)n1)[C@@H](C)[C@@H]1C[C@H](O)[C@@]2(C)O[C@@H]2/C=C/[C@@H](C)[C@H]2C[C@H](CC(=O)O2)C[C@@H]2O[C@H]2C(=O)O1 [Rhizoxin] | (11) |  | 98.4 ± 37.6 |  |  |  |  |  | IC50 ([1]; Homo sapiens, KB 3-1, KB-3-1 parental, Table 8, read-out: KB-3-1 IC50): 9.13 ± 2.17 nM
8 | CC[C@@]1(O)C(=O)OCc2c1cc1n(c2=O)Cc2cc3c(CN(C)C)c(O)ccc3nc2-1 [Topotecan, topotecan] | (57) | 18.1 ± 2.98 | 1030 ± 541 |  |  |  |  |  | 
9 | CO[C@]12C=C[C@](C)(O1)[C@@H](OC(=O)/C=C/c1cn(C)cn1)C[C@H]1C(C)=CC[C@H](C(C)C)[C@H]1/C=C\2CO[C@@H]1OC[C@@H](O)[C@@H](O)[C@@H]1OC(C)=O [Eleutherobin] |  |  |  |  |  |  |  |  | IC50 ([1]; Homo sapiens, KB 3-1, read-out: KB-3-1 IC50, nM): 17.4 ± 1.63 nM; (RR) relative resistance vs. parental cells [2]: (1); IC50 ([2]; Homo sapiens, KB 3-1, read-out: KB-HTI-4.0 IC50, nM): 21.3 ± 4.4 nM
10 | CN[C@H](C(=O)N[C@H](C(=O)N(C)[C@H](/C=C(\C)C(=O)O)C(C)C)C(C)(C)C)C(C)(C)c1cccc(OC)c1 [Example 46, 3-Methoxy-N,β,β-trimethylphenylalanyl-N^1-[(1S,2E)-3-carboxy-1-isopropyl-2-butenyl]-N^1,3-dimethyl-L-valinamide] |  |  |  | 1.7 | 5.9 | 64.0 | 224 | 3.5 | 
11 | CNC(C(=O)NC(C(=O)N(C)C(C=C(C)C(=O)O)C(C)C)C(C)(C)C)C(C)c1ccccc1.O=C(O)C(F)(F)F (stereo not shown) [Example 100, 4-{[3,3-Dimethyl-2-(2-methylamino-3-phenyl-butyrylamino)-butyryl]-methyl-amino}-2,5-dimethyl-hex-2-enoic Acid Trifluoroacetic Acid] |  |  |  | 1.7 | 197 | 26.2 | ≥ 3000 | 114 | 
12 | CN[C@H](C(=O)N[C@H](C(=O)N(C)[C@H](/C=C(\C)C(=O)O)C(C)C)C(C)(C)SCc1ccc(OC)cc1)C(C)(C)c1ccc(OC)cc1 [Example 83, N,O,β,β-tetramethyl-L-tyrosyl-N^1-[(1S,2E)-3-carboxy-1-isopropyl-2-butenyl]-3-[(4-methoxybenzyl)sulfanyl]-N^1-methyl-L-valinamide] |  |  |  | 2.8 | 43.7 | 132.2 | 2090 | 15.8 | 
13 | C=CC(C)(C)[C@H](NC(=O)[C@@H](NC)C(C)(C)c1ccccc1)C(=O)N(C)[C@H](/C=C(\C)C(=O)O)C(C)C [Example 120, (2E,4S)4-[{(2S)-3,3-dimethyl-2-[(N,β,β-trimethyl-L-phenylalanyl)amino]4-pentenoyl}(methyl)amino]-2,5-dimethyl-2-hexenoic Acid] |  |  |  |  |  |  |  |  | Activity in nude mice animal model (% T/C @ MTD on days 11-15) LOX [5]: 20%; IC50 ([1]; Homo sapiens, KB 3-1, 72 h, amount of drug needed to kill 50% of cells after three days continuous exposure, Table 11, read-out: IC50 in parental cell line KB-3-1): 3.5 nM
14 | CCOC(=O)/C(C)=C/[C@H](C(C)C)N(C)C(=O)[C@@H](NC(=O)[C@@H](NC)C(C)(C)c1ccc(OC)cc1)C(C)(C)C [Example 56, N,O,β,β-tetramethyl-L-tyrosyl-N^1-[(1S,2E)-4-ethoxy-1-isopropyl-3-methyl-4-oxo-2-butenyl]-N^1,3-dimethyl-L-valinamide] |  |  |  | 18.2 | 479 | 67.6 | 1780 | 26.3 | 
15 | CNC(=O)/C(C)=C/[C@H](C(C)C)N(C)C(=O)[C@@H](NC(=O)[C@@H](NC)C(C)(C)c1ccccc1)C(C)(C)C [Example 108, (E,4S)-4-[((2S)-3,3-dimethyl-2-{[(2S)-3-methyl-2-(methylamino)-3-phenylbutanoyl]amino}butanoyl)(methyl)amino]-N,2,5-trimethyl-2-hexenamide] |  |  |  | 1.9 | 129 | 23.3 | 1590 | 68.3 | 
16 | COc1cc2cc(c1Cl)N(C)C(=O)C[C@H](OC(=O)[C@H](C)N(C)C(C)=O)[C@]1(C)O[C@H]1[C@H](C)[C@@H]1C[C@@](O)(NC(=O)O1)[C@H](OC)/C=C/C=C(\C)C2 [Maytansine] | (14) | 0.06 | 0.84 ± 0.19 |  |  |  |  |  | 
